From patent US11286263B2, “Macrocyclic fluorine substituted indole derivatives” (The Broad Institute, Inc., priority 2017, dated 2022)
pIC50: −log10 of the molar value. Values joined by “and” are separate entries in the source; they are usually repeats but may differ in a detail not shown here. Equal values may be shown once. Where a name gives a salt, the structure may show the parent alone. Read-outs that look alike come from different tables or passages of the source.

Assays:
MCL-1 = MCL-1 (Homo sapiens (Human), UniProt Q07820, K194A/K197A/R201A); test: Protein-protein interaction assay MCL-1/Noxa BH3 peptide (MCL-1 assay), TR-FRET; format: binding; settings: MCL-1/Noxa BH3 peptide TR-FRET; median
Sequence of MCL-1 (Q07820 whole entry K194A/K197A/R201A, looked up): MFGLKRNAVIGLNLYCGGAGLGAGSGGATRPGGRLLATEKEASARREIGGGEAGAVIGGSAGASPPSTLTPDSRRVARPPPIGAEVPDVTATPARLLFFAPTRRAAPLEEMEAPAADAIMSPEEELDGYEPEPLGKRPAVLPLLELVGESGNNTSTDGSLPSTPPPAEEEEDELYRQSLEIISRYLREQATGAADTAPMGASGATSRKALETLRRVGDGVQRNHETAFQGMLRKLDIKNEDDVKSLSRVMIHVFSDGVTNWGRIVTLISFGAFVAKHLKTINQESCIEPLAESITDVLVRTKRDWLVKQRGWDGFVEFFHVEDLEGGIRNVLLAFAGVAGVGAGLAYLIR
Outline: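 TR-FRET competition between MBP-MCL-1 (173-321, 1 nM) and biotin-Noxa BH3 peptide (1 nM) with anti-MBP-Eu/streptavidin-XL665; 11 compound levels 0.1 nM–20 μM, 10 min preincubation. Incubated 1 h at 22 °C then overnight at 4 °C, pH 7 Tris buffer. 665/620 ratio normalized to DMSO and no-MCL-1; 4-parameter IC50.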

SUDHL5 = test: Induction of caspase-3/7 activity, SUDHL5 (Assay 4); format: cell-based; settings: SUDHL5 cells
Outline: (§1)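 DLBCL lines treated with compounds for 3 h at 37° C.; caspase-3/7 activity read by Caspase-Glo 3/7 luminescence. Medium-only background subtracted; EC50 fitted with bottom fixed at 1 and top set to reference compound's maximal induction.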

SUDHL10 = test: Induction of caspase-3/7 activity, SUDHL10 (Assay 4); format: cell-based; settings: SUDHL10 cells
Outline: as §1

MV-4-11 = test: Antiproliferation assay MV-4-11 (Assay 7); format: cell-based; settings: MV-4-11 cells, CellTiter-Glo, single determinations, read-out: IC50 Antiproli MV-4-11
Outline: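 CellTiter-Glo luminescence readout; 72 h compound exposure, 37 °C, humidified; rim wells excluded; time-zero reference plate plated in parallel and read identically.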

[1] = Homo sapiens, SU-DHL-5, 3 h, Caspase-Glo 3/7, median
[2] = Homo sapiens, SU-DHL10, 3 h, Caspase-Glo 3/7, median

Row | Structure (SMILES) | IC50 (MCL-1) [nM] | EC50 (SUDHL5; [1]) [nM] | EC50 (SUDHL10; [2]) [nM] | pIC50 (MV-4-11; Homo sapiens, MV4-11, 72 h) | pIC50 (MV-4-11; 72 h, listed as 01) | pIC50 (MV-4-11; 72 h, listed as 09) | pIC50 (MV-4-11; 72 h) | EC50 (SUDHL5; 3 h, Caspase-Glo 3/7, median) [nM] | EC50 (SUDHL10; 3 h, Caspase-Glo 3/7, median) [nM]
1 | Cc1c2c(nn1C)COC/C=C\Cn1c(C(=O)O)c(CCCOc3cccc4ccccc34)c3ccc(F)c-2c31 (racemic) [Example 1, (rac)-(11Z)-4-fluoro-2,3-dimethyl-7-[3-(naphthalen-1-yloxy)propyl]-2,10,13,15-tetrahydro-pyrazolo[4′,3′:9,10][1,6]oxazacycloundecino[8,7,6-hi]indole-8-carboxylic acid] | 1.8 | 1400 | 2500 | 4.95 | 4.85 | – | – | – | –
2 | Cc1nn(C)c2c1-c1c(F)ccc3c(CCCOc4cccc5ccccc45)c(C(=O)O)n(c13)C/C=C\COC2 (racemic) [Example 9, (rac)-(Z)-13-fluoro-10,12-dimethyl-1-(3-(naphthalen-1-yloxy)propyl)-4,7,9,10-tetrahydro-pyrazolo[4′,3′:9,10][1]oxa[6]azacycloundecino[8,7,6-hi]indole-2-carboxylic acid] | 2.4 | 2700 | 18000 | 5.12 | – | 5.22 | – | – | –
3 | Cc1nn(C)c2c1-c1c(F)ccc3c(CCCOc4cccc5ccccc45)c(C(=O)O)n(c13)CCCCOC2 (racemic) [Example 10, (rac)-13-fluoro-10,12-dimethyl-1-(3-(naphthalen-1-yloxy)propyl)-4,5,6,7,9,10-hexahydro-pyrazolo[4′,3′:9,10][1]oxa[6]azacycloundecino[8,7,6-hi]indole-2-carboxylic acid] | 1.1 | 1700 | 7800 | 5.19 | – | – | 5.36 | – | –
4 | Cc1c2c(nn1C)COCCCCn1c(C(=O)O)c(CCCOc3cccc4c3CCC4)c3ccc(F)c-2c31 (racemic) [Example 19, (rac)-1-(3-((2,3-dihydro-1H-inden-4-yl)oxy)propyl)-13-fluoro-11,12-dimethyl-4,5,6,7,9,11-hexahydropyrazolo[4′,3′:9,10][1]oxa[6]azacycloundecino[8,7,6-hi]indole-2-carboxylic acid] | 1.5 | 960 | 3800 | 5.37 | – | – | 5.54 and 5.31 | – | –
5 | Cc1cc(OCCCc2c(C(=O)O)n3c4c(c(F)ccc24)-c2c(nn(C)c2C)COCCCC3)cc(C)c1Cl (racemic) [Example 20, (rac)-1-(3-(4-chloro-3,5-dimethylphenoxy)propyl)-13-fluoro-11,12-dimethyl-4,5,6,7,9,11-hexahydropyrazolo[4′,3′:9,10][1]oxa[6]azacycloundecino[8,7,6-hi]indole-2-carboxylic acid] | 1.5 | 1400 | 4000 | 5.09 | – | – | 5.26 | – | –
6 | CCc1c2c(nn1C)COCCCCn1c(C(=O)O)c(CCCOc3cc(C)c(Cl)c(C)c3)c3ccc(F)c-2c31 (racemic) [Example 31, (rac)-1-(3-(4-chloro-3,5-dimethylphenoxy)propyl)-12-ethyl-13-fluoro-11-methyl-4,5,6,7,9,11-hexahydropyrazolo[4′,3′:9,10][1]oxa[6]azacycloundecino[8,7,6-hi]indole-2-carboxylic acid] | 1.8 | 2500 | 4500 | 5.22 | – | – | 5.08 | – | –
7 | Cc1nn(C)c2c1-c1c(F)ccc3c(CCCOc4ccc(F)c5ccccc45)c(C(=O)O)n(c13)CCCCOC2 (racemic) [Example 33, (rac)-13-fluoro-1-(3-((4-fluoronaphthalen-1-yl)oxy)propyl)-10,12-dimethyl-4,5,6,7,9,10-hexahydropyrazolo[4′,3′:9,10][1]oxa[6]azacycloundecino[8,7,6-hi]indole-2-carboxylic acid] | 1.7 | 2900 | 9100 | 4.95 | – | – | – | – | –
8 | Cc1c2c(nn1C)COCCCCn1c(C(=O)O)c(CCCOc3cccc4ccccc34)c3ccc(F)c-2c31 (single isomer, unassigned; enantiomer 1) [Example 3, 4-fluoro-2,3-dimethyl-7-[3-(naphthalen-1-yloxy)propyl]-2,10,11,12,13,15-hexahydropyrazolo-[4′,3′:9,10][1,6]oxazacycloundecino[8,7,6-hi]indole-8-carboxylic acid-N-ethylethanamine salt (enantiomer 1)] | 1.3 | – | 1300 | – | – | – | – | 650 | –
9 | CCc1c2c(nn1C)COCCCCn1c(C(=O)O)c(CCCOc3cccc4cc(F)ccc34)c3ccc(F)c-2c31 (single isomer, unassigned; enantiomer 1) [Example 22, 3-ethyl-4-fluoro-7-{3-[(6-fluoronaphthalen-1-yl)oxy]propyl}-2-methyl-2,10,11,12,13,15-hexahydropyrazolo[4′,3′:9,10][1,6]oxazacycloundecino[8,7,6-hi]indole-8-carboxylic acid-N-ethylethanamine salt (enantiomer 1)] | 0.45 | – | – | – | – | – | – | 210 | 380
10 | CCc1nn(C)c2c1-c1c(F)ccc3c(CCCOc4cccc5cc(F)ccc45)c(C(=O)O)n(c13)CCCCOC2 (single isomer, unassigned; enantiomer 1) [Example 39, 3-ethyl-4-fluoro-7-{3-[(6-fluoronaphthalen-1-yl)oxy]propyl}-1-methyl-1,10,11,12,13,15-hexahydropyrazolo[4′,3′:9,10][1,6]oxazacycloundecino[8,7,6-hi]indole-8-carboxylic acid-N-ethylethanamine salt (enantiomer 1)] | 0.8 | – | – | – | – | – | – | 560 | 940
11 | Cc1c2c(nn1C)CNCCCCn1c(C(=O)O)c(CCCOc3cccc4ccccc34)c3ccc(F)c-2c31 (single isomer, unassigned; enantiomer 1) [Example 48, 4-fluoro-2,3-dimethyl-7-{3-[(naphthalen-1-yl)oxy]propyl}-10,11,12,13,14,15-hexahydro-2H-pyrazolo[3′,4′:8,9][1,6]diazacycloundecino[10,11,1-hi]indole-8-carboxylic acid (enantiomer 1)] | 1.1 | – | – | – | – | – | – | 1200 | 2100

Continued, values first:

Row | IC50 (MCL-1) [nM] | EC50 (SUDHL5; [1]) [nM] | EC50 (SUDHL10; [2]) [nM] | pIC50 (MV-4-11; Homo sapiens, MV4-11, 72 h) | pIC50 (MV-4-11; 72 h, listed as 01) | pIC50 (MV-4-11; 72 h, listed as 09) | pIC50 (MV-4-11; 72 h) | EC50 (SUDHL5; 3 h, Caspase-Glo 3/7, median) [nM] | EC50 (SUDHL10; 3 h, Caspase-Glo 3/7, median) [nM] | Structure (SMILES)
12 | 2.2 | 2100 | 6500 | 5.12 | – | – | 4.89 | – | – | CCc1nn(C)c2c1-c1c(F)ccc3c(CCCOc4cccc5ccccc45)c(C(=O)O)n(c13)C/C=C\COC2 (racemic) [Example 11, (rac)-(Z)-12-ethyl-13-fluoro-10-methyl-1-(3-(naphthalen-1-yloxy)propyl)-4,7,9,10-tetrahydro-pyrazolo[4′,3′:9,10][1]oxa[6]azacycloundecino[8,7,6-hi]indole-2-carboxylic acid]
13 | 1.6 | 840 | 2300 | 5.45 | – | – | 5.54 and 5.25 | – | – | Cc1c2c(nn1C)COCCCCn1c(C(=O)O)c(CCCOc3cccc4c3CCCC4)c3ccc(F)c-2c31 (racemic) [Example 18, (rac)-13-fluoro-11,12-dimethyl-1-(3-((5,6,7,8-tetrahydronaphthalen-1-yl)oxy)propyl)-4,5,6,7,9,11-hexahydropyrazolo[4′,3′:9,10][1]oxa[6]azacycloundecino[8,7,6-hi]indole-2-carboxylic acid]
14 | 1.5 | 1200 | 1700 | 5.69 | – | – | 5.59 | – | – | CCc1c2c(nn1C)COCCCCn1c(C(=O)O)c(CCCOc3cccc4c3CCCC4)c3ccc(F)c-2c31 (racemic) [Example 29, (rac)-12-ethyl-13-fluoro-11-methyl-1-(3-((5,6,7,8-tetrahydronaphthalen-1-yl)oxy)propyl)-4,5,6,7,9,11-hexahydropyrazolo[4′,3′:9,10][1]oxa[6]azacycloundecino[8,7,6-hi]indole-2-carboxylic acid]
15 | 1.1 | 800 | 2600 | 5.31 | – | – | 5.32 | – | – | Cc1nn(C)c2c1-c1c(F)ccc3c(CCCOc4cccc5cc(F)ccc45)c(C(=O)O)n(c13)CCCCOC2 (racemic) [Example 32, (rac)-13-fluoro-1-(3-((6-fluoronaphthalen-1-yl)oxy)propyl)-10,12-dimethyl-4,5,6,7,9,10-hexahydropyrazolo[4′,3′:9,10][1]oxa[6]azacycloundecino[8,7,6-hi]indole-2-carboxylic acid]
16 | 1.5 | – | – | – | – | – | – | 660 | 1600 | CCc1c2c(nn1C)COCCCCn1c(C(=O)O)c(CCCOc3ccc(F)c4ccccc34)c3ccc(F)c-2c31 (single isomer, unassigned; enantiomer 1) [Example 27, 3-ethyl-4-fluoro-7-{3-[(4-fluoronaphthalen-1-yl)oxy]propyl}-2-methyl-2,10,11,12,13,15-hexahydropyrazolo[4′,3′:9,10][1,6]oxazacycloundecino[8,7,6-hi]indole-8-carboxylic acid-N-ethylethanamine salt (enantiomer 1)]
